In US11046753B2, “Antibody composition and buffer system therefor” (INNOVA BIOSCIENCES LTD, priority 2013, dated 2021):
“Also recorded” adds a separate entry of the source.

How the values were obtained:
[1] = Isothiocyanate (FITC) conjugation of rabbit IgG in presence of additive, dye to protein ratio; settings: 50 mM additive, CHES pH 9.0
Protocol: Conjugates were desalted on PD10 columns (GE Healthcare) in TBS buffer and the absorbance values of the eluted solutions were determined at 280 nm and 495 nm. The ratio of moles dye to moles of protein for antibody dye conjugates in the presence of various additives is shown in FIG. 3.

[2] = NHS ester (fluorescein) conjugation of rabbit IgG in presence of additive, dye to protein ratio; settings: 50 mM additive, sodium phosphate pH 8.0
Protocol: Conjugates were desalted on PD10 columns equilibrated in TBS buffer and absorbance values of the eluted solutions were determined at 280 nm and 495 nm. The ratio of moles dye to moles of protein for antibody dye conjugates in the presence of various additives is shown in FIG. 4.

[3] = Carbodiimide (EDC)-mediated conjugation of goat anti-rabbit IgG to carboxylated gold nanoparticles in presence of additive, read by lateral flow assay
Protocol: Molecules were tested initially at pH 5 in EDC-mediated reactions with carboxylated gold particles (InnovaCoat GOLD, Innova Biosciences). Potentially interesting molecules from this screening exercise were further evaluated in NHS ester reactions, isothiocyanate reactions and thiolation reactions involving iminothiolane. All of these reactions are widely used in the antibody conjugation field and all would be expected to suffer from interference in the presence of glycine.
Lateral flow test strips (4 mm wide) were prepared from nitrocellulose membrane (Millipore Hi Flow plus 90) striped with goat anti-rabbit IgG (test line) and biotin-BSA (control line). Strips were housed in plastic cartridges and samples of gold conjugate (80 ul) were added to the sample pad. Cartridges were allowed to stand for 30 min and then read using a ESE-Quant GOLD reader—QIAGEN. Each sample was spiked with a fixed amount of streptavidin-gold (Innova biosciences—Product code: 250-0200), which binds to the control line, to check that each test strip had run correctly and that test line data was valid.
10 μg of goat anti-rabbit IgG (GAR) was used per ml of coated 40 nm nanoparticles with carboxyl functionality (InnovaCoat GOLD, Innova Biosciences) at […] in the presence of additives at 50 mM final concentration. Typically reactions were set up with the following additions: 40 μl of 40 nm InnovaCoat (carboxylated) gold nanopartcles, were incubated 5 minutes with 4 μl 0.1 mg/ml GAR, 20 μl water, and 80 μl of 100 mM MES buffer containing 100 mM of additive, pH 5.0. Next, 16 μl of 1 mM EDC was added and after 10 min incubation at 22° C., 20 μl of 10×TBS/1% Tween20 and 20 μl of water was added to give 2 OD conjugate.
Gold conjugates were mixed when required with rabbit IgG ((final concentration 50 ng/ml) at 22° C. Conjugates were 0.2 OD final concentration (i.e. 1/10 dilution from stock conjugates). Samples were run in triplicate on lateral flow test strips as described in Example 1.

[4] = Effect of additives on the thiolation reagent 2-iminothiolane (thiol release, DTNB, A405); settings: 50 mM additive, pH 8.0, 30 minutes
Protocol: 20 μl of 2 mM 2-iminothiolane was added to each well and mixed quickly and the absorbance values were read at 405 nm every minute for 30 minutes using a Tecan Infinite M200 plate reader with i-Control 1.4 software. […] In control reaction, there is a steady linear increase in absorbance as the reagent is hydrolysed by water. […] The rising baseline can be attributed to the known sensitivity of 2-iminothiolane to hydrolysis at alkaline pH values.

[5] = Lightning-Link fluorescein conjugation of goat anti-rabbit IgG in presence of additive, fluorescence assay; settings: 50 mM additive; for % of control: conjugate 1/100 dilution, additive-free control 100%
Protocol: (§1) Black 96-well plates (Greiner Bio-One (code 655077)) were incubated with 50 ul rabbit IgG (1 ug/well) overnight at 4° C. The plates were blocked with TBS/0.1% BSA for 1 hour at room temperature and washed five times with TBS (wash buffer). Fluorescent antibody conjugates were serially diluted in TBS/0.1% BSA and 50 ul aliquots were added to wells in triplicate. After incubation at room temperature for 1 hour, the plate was washed five times and fluorescence emission was read in using a Tecan Infinite M200 plate reader with i-Control 1.4 software with the appropriate excitation/emission settings (fluorescein, 490 nm/535 nm; phycoeythrin, 535 nm/575 nm. Fluorescence data was plotted as a function of conjugate dilution. To compare results for additives tested in different experiments the data were transformed into a percentage of a control value (i.e. the signal for conjugate prepared in the absence of any test additive).
Reactions were carried out according to the manufacturer's standard protocol except that the additives were included at up to 50 mM concentration in conjugation reactions of Goat-anti-rabbit IgG using fluorescein Lightning-Link kit (product code 707-0010, Innova Biosciences, UK). Conjugates were tested according to the protocol described in Example 2.

[6] = 25° C., cited from earlier work; for pKa (COOH): Table 1
[7] = Lightning-Link phycoerythrin conjugation of goat anti-rabbit IgG in presence of tricine, fluorescence assay
Protocol: as §1
The method was as described in Example 4, except that the Goat anti-rabbit IgG was conjugated to the fluorescent protein phycoerythrin (PE) using a Lightning-Link PE conjugation kit (703-0005). Tricine has little effect on Lightning-Link PE conjugation reactions in the range of concentrations tested. In this case the conjugate prepared at the highest concentration of tricine (50 mM) gave a signal that was 91% of control value in the absence of additive.

[8] = Degree of ionisation of the acid group at pH 5 (Henderson-Hasselbach); type: physicochemical
[9] = additive 50 mM final, MES pH 5.0, EDC, lateral flow test line signal

With Glycine the “ratio of moles dye to moles of protein versus control, FITC” value [1] was “significant interference”, the “ratio of moles dye to moles of protein versus control, fluorescein NHS ester” value [2] was “substantial interference” and the “% of Signal” value ([3]; pH 5) was 94%. The “interference in carbodiimide-mediated antibody-gold nanoparticle conjugation reaction” value ([3]; pH 5) was “no interference; also recorded: do not interfere; also recorded: does not”, the “release of thiols from 2-iminothiolane versus control” value [4] was “rapid hydrolysis and ring opening; also recorded: reacts rapidly” and the “interference in Lightning-Link fluorescein conjugation reaction” value [5] was “significant interference”.

For `O=C(O)c1ccccn1` [2-Picolinic Acid, 2-pyridinecarboxylic acid], the “% of Signal” value [3, 9] was 100%, the “interference in carbodiimide-mediated antibody-gold nanoparticle conjugation reaction” value ([3]; pH 5, EDC, listed as 2-picolinic acid) was “little or no effect” and the “interference in carbodiimide-mediated antibody-gold nanoparticle conjugation reaction” value ([3]; pH 5, EDC, listed as picolinic acid) was “without effect”. The “pKa of the amine group” value [6] was 5.52, the “pKa (COOH)” value [6] was “pKa1 = 5.52” and the “interference in Lightning-Link fluorescein conjugation reaction” value [5] was “modest interference”. The “% of control” value [5] was 83%.

In the case of `O=C(O)CNC(CO)(CO)CO` [Tricine, N-tris(hydroxymethyl)methylglycine], the “% of Signal” value [3, 9] is reported as 105%, the “interference in carbodiimide-mediated antibody-gold nanoparticle conjugation reaction” value ([3]; pH 5, EDC) is reported as “little or no effect” and the “% of control” value ([7]; 50 mM tricine) is reported as 91%. The “interference in Lightning-Link phycoerythrin conjugation reaction” value ([7]; up to 50 mM) was “little effect; also recorded: modest degree of interference”, the “pKa of the carboxyl (acid) group” value [6] was roughly 2.3 and the “pKa (COOH)” value [6] was “pKa1 = 2.3”.

For `CN(C)CC(=O)O` [N,N- Dimethylglycine, N,N-dimethylglycine], the “% of Signal” value [3, 9] is given as 110%, the “interference in carbodiimide-mediated antibody-gold nanoparticle conjugation reaction” value ([3]; pH 5, EDC) is given as “little or no effect” and the “pKa (COOH)” value [6] is given as “pKa1 = 2.06”. The “interference in Lightning-Link fluorescein conjugation reaction” value [5] was “little or no effect” and the “% of control” value [5] was 96%.

In the case of Citric Acid, the “% of Signal” value [3, 9] is reported as 0%, the “interference in carbodiimide-mediated antibody-gold nanoparticle conjugation reaction” value ([3]; pH 5, EDC) is reported as “severe interference” and the “release of thiols from 2-iminothiolane versus control” value ([4]; listed as Citric acid) is reported as “no effect”. For the same compound, the “release of thiols from 2-iminothiolane versus control” value ([4]; listed as citric acid) was “no increase in this rate”.

For `O=C(O)C(Cl)(Cl)Cl` [TCA, trichloroacetic acid], the “acid groups ionised (COO−)” value [8] was “essentially fully ionised”, the “% of Signal” value [3, 9] was 0% and the “interference in carbodiimide-mediated antibody-gold nanoparticle conjugation reaction” value ([3]; pH 5, EDC) was “severe interference”.

With `NCCCC(=O)O` [GABA (Υ-Aminobutyric Acid), gamma-amino butyric acid] the “acid groups ionised (COO−)” value [8] was 85.5%, the “% of Signal” value [3, 9] was 26% and the “interference in carbodiimide-mediated antibody-gold nanoparticle conjugation reaction” value ([3]; pH 5, EDC) was “significant interference; also recorded: significantly inhibits”. The “pKa (COOH)” value [6] was “pKa1 = 4.23”.

For `C[N+](C)(C)CC(=O)[O-]` [Glycine betaine, N,N,N-trimethylglycine], the “% of Signal” value [3, 9] is listed as 96%, the “interference in carbodiimide-mediated antibody-gold nanoparticle conjugation reaction” value ([3]; pH 5, EDC) is listed as “little or no effect” and the “pKa of the carboxyl (acid) group” value [6] is listed as 1.8. For the same compound, the “pKa (COOH)” value [6] was “pKa = 1.83”, the “release of thiols from 2-iminothiolane versus control” value ([4]; listed as betaine) was “no increase in this rate” and the “release of thiols from 2-iminothiolane versus control” value ([4]; listed as glycine betaine) was “without effect”. For the same compound, the “interference in Lightning-Link fluorescein conjugation reaction” value [5] was “little or no effect” and the “% of control” value [5] was 98%.

For `O=C(O)[C@@H]1CCCN1` [Proline], the “% of Signal” value [3, 9] was 94%, the “interference in carbodiimide-mediated antibody-gold nanoparticle conjugation reaction” value ([3]; pH 5, EDC) was “little or no effect” and the “interference in Lightning-Link fluorescein conjugation reaction” value [5] was “significant interference”. The “% of control” value [5] was 53%.

With `CC(C)(C)C(=O)O` [Pivalic Acid] the “acid groups ionised (COO−)” value [8] was roughly 50%, the “% of Signal” value [3, 9] was 53% and the “interference in carbodiimide-mediated antibody-gold nanoparticle conjugation reaction” value ([3]; pH 5, EDC) was “significant interference but not totally abolishing the conjugation reaction; also recorded: partial inhibition”.
